Test results: PubChem BioAssay AID256 (DTP/NCI, 2004)
Several values for one entry are separate records, joined by “and”; a condition that tells them apart may be missing. Equal values may be shown once. Toxic doses and inconclusive results are not listed.

Test system: CD2F1 mice, L1210 leukemia ip, survival T/C
Assay: NCI In Vivo Anticancer Drug Screen. Data for tumor model L1210 Leukemia (intraperitoneal) in CD2F1 (CDF1) mice
Conditions: higher = longer survival
How it was run: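 Implant tumor; dose compound or vehicle; measure endpoint in both groups; report treated divided by control.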

[1] = endpoint: mean survival time, dose: 200.0 mg/kg/injection, schedule: Q01DX001 (ip), vehicle: saline
[2] = endpoint: mean survival time, dose: 400.0 mg/kg/injection, schedule: Q01DX001 (ip), vehicle: saline
[3] = endpoint: mean survival time, dose: 25.0 mg/kg/injection, schedule: Q01DX009 (ip), vehicle: saline with Tween-80
[4] = endpoint: mean survival time, dose: 50.0 mg/kg/injection, schedule: Q04DX003 (ip), vehicle: saline with Tween-80
[5] = endpoint: mean survival time, dose: 100.0 mg/kg/injection, schedule: Q01DX009 (ip), vehicle: saline with Tween-80
[6] = endpoint: mean survival time, dose: 100.0 mg/kg/injection, schedule: Q04DX003 (ip), vehicle: saline with Tween-80
[7] = endpoint: mean survival time, dose: 25.0 mg/kg/injection, schedule: Q04DX003 (ip), vehicle: saline with Tween-80
[8] = endpoint: mean survival time, dose: 200.0 mg/kg/injection, schedule: Q01DX009 (ip), vehicle: saline with Tween-80
[9] = endpoint: mean survival time, dose: 400.0 mg/kg/injection, schedule: Q01DX009 (ip), vehicle: saline with Tween-80
[10] = endpoint: mean survival time, dose: 100.0 mg/kg/injection, schedule: Q01DX001 (ip), vehicle: saline

## C/C(=N\N=C(N)N)c1ccc(NC(=O)Nc2ccc(/C(C)=N/N=C(N)N)cc2)cc1
endpoint: mean survival time, dose: 25.0 mg/kg/injection, schedule: Q01DX005 (ip), vehicle: saline
  T/C: 155 % of control
endpoint: mean survival time, dose: 25.0 mg/kg/injection, schedule: Q01DX009 (ip), vehicle: saline
  T/C: 155 % of control
endpoint: mean survival time, dose: 25.0 mg/kg/injection, schedule: Q01DX009 (sc), vehicle: saline
  T/C: 101 % of control
endpoint: mean survival time, dose: 50.0 mg/kg/injection, schedule: Q01DX005 (ip), vehicle: saline
  T/C: 185 % of control
endpoint: mean survival time, dose: 50.0 mg/kg/injection, schedule: Q01DX007 (ip), vehicle: saline
  T/C: 152 % of control
endpoint: mean survival time, dose: 50.0 mg/kg/injection, schedule: Q01DX009 (ip), vehicle: saline
  T/C: 154 % of control and 188 % of control
endpoint: mean survival time, dose: 50.0 mg/kg/injection, schedule: Q01DX009 (sc), vehicle: saline
  T/C: 107 % of control
endpoint: mean survival time, dose: 100.0 mg/kg/injection, schedule: Q01DX001 (sc), vehicle: saline
  T/C: 101 % of control
endpoint: mean survival time, dose: 100.0 mg/kg/injection, schedule: Q01DX005 (ip), vehicle: saline
  T/C: 223 % of control
endpoint: mean survival time, dose: 100.0 mg/kg/injection, schedule: Q01DX007 (ip), vehicle: saline
  T/C: 225 % of control
endpoint: mean survival time, dose: 100.0 mg/kg/injection, schedule: Q01DX009 (ip), vehicle: saline
  T/C: 250 % of control and 314 % of control
endpoint: mean survival time, dose: 100.0 mg/kg/injection, schedule: Q01DX009 (oral), vehicle: saline
  T/C: 98 % of control
endpoint: mean survival time, dose: 100.0 mg/kg/injection, schedule: Q01DX009 (sc), vehicle: saline
  T/C: 102 % of control
endpoint: mean survival time, dose: 100.0 mg/kg/injection, schedule: Q03DX003 (ip), vehicle: saline
  T/C: 154 % of control
endpoint: mean survival time, dose: 100.0 mg/kg/injection, schedule: Q04DX003 (ip), vehicle: saline
  T/C: 163 % of control
endpoint: mean survival time, dose: 100.0 mg/kg/injection, schedule: Q## X024 (ip), vehicle: saline
  T/C: 160 % of control
[1]
  T/C: 155 % of control
endpoint: mean survival time, dose: 200.0 mg/kg/injection, schedule: Q01DX001 (oral), vehicle: saline
  T/C: 103 % of control
endpoint: mean survival time, dose: 200.0 mg/kg/injection, schedule: Q01DX001 (sc), vehicle: saline
  T/C: 102 % of control
endpoint: mean survival time, dose: 200.0 mg/kg/injection, schedule: Q01DX007 (ip), vehicle: saline
  T/C: 90 % of control
endpoint: mean survival time, dose: 200.0 mg/kg/injection, schedule: Q01DX009 (ip), vehicle: saline
  T/C: 217 % of control
endpoint: mean survival time, dose: 200.0 mg/kg/injection, schedule: Q01DX009 (oral), vehicle: saline
  T/C: 88 % of control
endpoint: mean survival time, dose: 200.0 mg/kg/injection, schedule: Q01DX009 (sc), vehicle: saline
  T/C: 119 % of control
endpoint: mean survival time, dose: 200.0 mg/kg/injection, schedule: Q03DX003 (ip), vehicle: saline
  T/C: 186 % of control
endpoint: mean survival time, dose: 200.0 mg/kg/injection, schedule: Q03HX008 (ip), vehicle: saline
  T/C: 152 % of control
endpoint: mean survival time, dose: 200.0 mg/kg/injection, schedule: Q04DX003 (ip), vehicle: saline
  T/C: 156 % of control and 200 % of control
endpoint: mean survival time, dose: 200.0 mg/kg/injection, schedule: Q08DX002 (ip), vehicle: saline
  T/C: 172 % of control
endpoint: mean survival time, dose: 200.0 mg/kg/injection, schedule: Q## X016 (ip), vehicle: saline
  T/C: 198 % of control
endpoint: mean survival time, dose: 200.0 mg/kg/injection, schedule: Q## X024 (ip), vehicle: saline
  T/C: 230 % of control
[2]
  T/C: 180 % of control
endpoint: mean survival time, dose: 400.0 mg/kg/injection, schedule: Q01DX001 (oral), vehicle: saline
  T/C: 101 % of control
endpoint: mean survival time, dose: 400.0 mg/kg/injection, schedule: Q01DX001 (sc), vehicle: saline
  T/C: 105 % of control
endpoint: mean survival time, dose: 400.0 mg/kg/injection, schedule: Q01DX009 (oral), vehicle: saline
  T/C: 116 % of control
endpoint: mean survival time, dose: 400.0 mg/kg/injection, schedule: Q03HX008 (ip), vehicle: saline
  T/C: 179 % of control
endpoint: mean survival time, dose: 400.0 mg/kg/injection, schedule: Q04DX003 (ip), vehicle: saline
  T/C: 325 % of control
endpoint: mean survival time, dose: 400.0 mg/kg/injection, schedule: Q08DX002 (ip), vehicle: saline
  T/C: 225 % of control
endpoint: mean survival time, dose: 400.0 mg/kg/injection, schedule: Q## X016 (ip), vehicle: saline
  T/C: 284 % of control
endpoint: mean survival time, dose: 400.0 mg/kg/injection, schedule: Q## X024 (ip), vehicle: saline
  T/C: 374 % of control
endpoint: mean survival time, dose: 800.0 mg/kg/injection, schedule: Q01DX001 (ip), vehicle: saline
  T/C: 206 % of control
endpoint: mean survival time, dose: 800.0 mg/kg/injection, schedule: Q01DX001 (oral), vehicle: saline
  T/C: 102 % of control
endpoint: mean survival time, dose: 800.0 mg/kg/injection, schedule: Q01DX001 (sc), vehicle: saline
  T/C: 105 % of control
endpoint: mean survival time, dose: 800.0 mg/kg/injection, schedule: Q01DX009 (oral), vehicle: saline
  T/C: 98 % of control
endpoint: mean survival time, dose: 800.0 mg/kg/injection, schedule: Q04DX003 (ip), vehicle: saline
  T/C: 294 % of control
endpoint: mean survival time, dose: 800.0 mg/kg/injection, schedule: Q08DX002 (ip), vehicle: saline
  T/C: 217 % of control
endpoint: mean survival time, dose: 800.0 mg/kg/injection, schedule: Q## X016 (ip), vehicle: saline
  T/C: 235 % of control
endpoint: mean survival time, dose: 1600.0 mg/kg/injection, schedule: Q01DX001 (oral), vehicle: saline
  T/C: 102 % of control

## CCN(CC)CC(O)CNc1cc(C)nc(/N=C(\N)Nc2ccc(Cl)c(Cl)c2)n1 (centres undefined)
endpoint: mean survival time, dose: 6.25 mg/kg/injection, schedule: Q01DX009 (ip), vehicle: saline with Tween-80
  T/C: 98 % of control
endpoint: mean survival time, dose: 12.5 mg/kg/injection, schedule: Q01DX009 (ip), vehicle: saline with Tween-80
  T/C: 104 % of control
[3]
  T/C: 106 % of control

## O=S(=O)(Cl)C(Cl)(Cl)Cl
[3]
  T/C: 96 % of control
endpoint: mean survival time, dose: 50.0 mg/kg/injection, schedule: Q01DX009 (ip), vehicle: saline with Tween-80
  T/C: 102 % of control
[4]
  T/C: 97 % of control
[5]
  T/C: 95 % of control
[6]
  T/C: 94 % of control

## CCC(C(=O)O)C(=O)O.[NH-]CC[NH-].[Pt+2]
[7]
  T/C: 101 % of control
[4]
  T/C: 104 % of control
[6]
  T/C: 112 % of control

## COC(O)C1OC(c2ccccc2)OC2C(CO)OC(c3ccccc3)OC12 (centres undefined)
[5]
  T/C: 90 % of control
[8]
  T/C: 90 % of control
[9]
  T/C: 90 % of control

## O=CN(Cc1ccccc1)c1cc([N+](=O)[O-])ccc1OCc1ccccc1
[10]
  T/C: 96 % of control
[1]
  T/C: 94 % of control
[2]
  T/C: 100 % of control

## Nc1ncnc2nc[nH]c12
endpoint: median survival time, dose: 70.0 mg/kg/injection, schedule: Q01DX009 (ip), vehicle: acid diluted with saline
  T/C: 98 % of control
endpoint: median survival time, dose: 70.0 mg/kg/injection, schedule: Q01DX009 (ip), vehicle: other
  T/C: 109 % of control
endpoint: median survival time, dose: 80.0 mg/kg/injection, schedule: Q01DX009 (ip), vehicle: acid diluted with saline
  T/C: 103 % of control
endpoint: median survival time, dose: 80.0 mg/kg/injection, schedule: Q01DX009 (ip), vehicle: other
  T/C: 112 % of control
endpoint: median survival time, dose: 90.0 mg/kg/injection, schedule: Q01DX009 (ip), vehicle: acid diluted with saline
  T/C: 101 % of control
endpoint: median survival time, dose: 90.0 mg/kg/injection, schedule: Q01DX009 (ip), vehicle: other
  T/C: 106 % of control

## NCCCN1CCOCC1
[10]
  T/C: 98 % of control
[1]
  T/C: 101 % of control
[2]
  T/C: 95 % of control

## O=C(Nc1cccc([N+](=O)[O-])c1)c1ccc(Cl)cc1Cl
[5]
  T/C: 90 % of control
[8]
  T/C: 92 % of control
[9]
  T/C: 90 % of control

## CCOC(=O)N(N=O)c1ccc2c(c1)Cc1cc([N+](=O)[O-])ccc1-2
endpoint: mean survival time, dose: 100.0 mg/kg/injection, schedule: Q01DX001 (ip), vehicle: carboxymethylcellulose (CMC)
  T/C: 105 % of control
endpoint: mean survival time, dose: 200.0 mg/kg/injection, schedule: Q01DX001 (ip), vehicle: carboxymethylcellulose (CMC)
  T/C: 105 % of control
endpoint: mean survival time, dose: 400.0 mg/kg/injection, schedule: Q01DX001 (ip), vehicle: carboxymethylcellulose (CMC)
  T/C: 97 % of control

## c1cc2c(cc1NC1=NCCO1)CCC2
endpoint: mean survival time, dose: 6.25 mg/kg/injection, schedule: Q04DX003 (ip), vehicle: saline with Tween-80
  T/C: 103 % of control
endpoint: mean survival time, dose: 12.5 mg/kg/injection, schedule: Q04DX003 (ip), vehicle: saline with Tween-80
  T/C: 108 % of control
[7]
  T/C: 111 % of control

## CCOC(=O)Nc1cc2c(c(N)n1)N=C(c1ccc(Cl)cc1Cl)CN2
endpoint: median survival time, dose: 3.12 mg/kg/injection, schedule: Q01DX009 (ip), vehicle: saline with Tween-80
  T/C: 106 % of control
endpoint: median survival time, dose: 6.25 mg/kg/injection, schedule: Q01DX009 (ip), vehicle: saline with Tween-80
  T/C: 112 % of control
endpoint: median survival time, dose: 12.5 mg/kg/injection, schedule: Q01DX009 (ip), vehicle: saline with Tween-80
  T/C: 114 % of control

## CCCCCC(C)C1=NC(C)(C)CC(C)O1 (centres undefined)
endpoint: mean survival time, dose: 5.0 mg/kg/injection, schedule: Q01DX009 (ip), vehicle: saline
  T/C: 94 % of control
endpoint: mean survival time, dose: 10.0 mg/kg/injection, schedule: Q01DX009 (ip), vehicle: saline
  T/C: 95 % of control
endpoint: mean survival time, dose: 20.0 mg/kg/injection, schedule: Q01DX009 (ip), vehicle: saline
  T/C: 97 % of control
endpoint: mean survival time, dose: 100.0 mg/kg/injection, schedule: Q01DX001 (ip), vehicle: saline with Tween-80
  T/C: 97 % of control
endpoint: mean survival time, dose: 200.0 mg/kg/injection, schedule: Q01DX001 (ip), vehicle: saline with Tween-80
  T/C: 93 % of control
